Source: US11911397B2, “Anordrin compositions and methods for treating diseases” (Zhejiang Jiachi Development Pharmaceuticals LTD, priority 2014, dated 2024)

What was measured:
ER-α-36 = target: T1, ER-α-36 (Homo sapiens, UniProt P03372); assay: 3H-E2 binding to ER-α-36 expressed in HEK-293 cells; details: blocking at low, facilitating at higher concentrations
T1 construct: expressed in transfected cells; host or cells: HEK-293
Source text: MIESs effect their regulation of cell proliferation, migration, cell-cell junction and matrix, and energy metabolism through a series of scaffold protein complexes. ER-α association with the plasma membrane is facilitated by palmitoylation at residue C447 in the LBD. […] To verify this, we measured the binding affinity of 3H-E2 with GST-ER-α-36 expressed and purified from E. coli. […] In contrast, 3H-E2 does bind to GST-ER-α-46, which has a full length ER-α-LBD.
Isolation of microsome and Drug competition assay: Cells were harvested and lysed in TE buffer (50 mM Tris (pH8.0), 5 mM EDTA, 2 mM PMSF and protease inhibitor cocktail (Sigma)) for 30 min with vortexing every 5 min. 80% glycerol in TE buffer was added to cell lysates to reach 20% and centrifuged at 800 g for 5 min. The supernatant was transferred to new tubes and total protein concentration was adjusted to 5 mg/ml. Drugs and ^3H-E2 were added to 1 ml protein solution and incubated at 4° C. for 2 hours. Microsome was precipitated at 25 krpm for 2 hours. Bound ^3H-E2 was measured using GM meter.

[1] = tested on: integrin β1 in MCF-7 cells; assay: integrin β1 cell surface distribution and expression in MCF-7 cells; assay type: cell-based; details: 6 μM
Description: MCF-7 cells were harvested and lysed in RIPA buffer. 40 μg total protein of cellular lysate was used for Western blotting to determinate the expression level of integrin β1.
Integrin translocation to the cell surface is regulated by the p130Cas scaffold protein complex to play a fundamental role in cell attachment and migration. Integrin α3β1 has been reported to be involved in MCF-7 cell attachment as well as MDA-MB-231 cell migration (25, 26). […] To verify the hypothesis, we treated MCF-7 and MDA-MB-231 cells with 6 μM anordrin for 16 hours and measured cell surface integrin β1 distribution using a FITC-labeled anti-integrin β1 antibody. […] Taken together, we conclude that anordrin or analog thereof (such as […]) binds to membrane-associated ER to inhibit cell migration and proliferation.
Transwell and flow cytometry assay: Cells were starved for 48 hours in phenol red free medium containing 5% charcoal-stripped FBS, and then changed into phenol red free medium for an additional 24 hours. Transwell was performed following the Chemicon kit instructions (CAT #ECM551). Briefly, cells were trypsinized, washed using 1×DPBS containing Ca2+ and Mg2+ (Sigma) and resuspensed in serum and phenol red free medium at a cell density of 0.5×10^6 cells/ml. […]

T47D cells = assay: EGF-induced T47D cell growth; assay type: cell-based; details: 7.5 μM, 10 ng/ml EGF
MCF-7 cells = assay: 2-NBDG glucose uptake and cellular ATP in MCF-7 cells; assay type: cell-based
Description: Glucose uptake was measured using fluorescently labeled glucose (2-NBDG), and ATP concentrations were measured using an ATP analysis kit.

T1 sequence (P03372 1-310 isoform P03372-4): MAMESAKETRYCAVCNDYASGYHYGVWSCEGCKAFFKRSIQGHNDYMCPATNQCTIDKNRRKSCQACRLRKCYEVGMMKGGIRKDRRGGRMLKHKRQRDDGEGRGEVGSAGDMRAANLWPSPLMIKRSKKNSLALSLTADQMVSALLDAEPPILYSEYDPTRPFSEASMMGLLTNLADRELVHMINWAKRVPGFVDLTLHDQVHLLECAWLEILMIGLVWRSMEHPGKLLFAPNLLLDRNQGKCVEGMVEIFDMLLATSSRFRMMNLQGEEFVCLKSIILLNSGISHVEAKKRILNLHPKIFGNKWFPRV

Structure (SMILES): C#C[C@@]1(OC(=O)CC)C[C@@H]2CC[C@@H]3[C@H](CC[C@@]4(C)[C@H]3CC[C@]4(C#C)OC(=O)CC)[C@@]2(C)C1 [anordrin, 2α,17α-diethynyl-A-nor-5α-androstane-2β,17β-diol dipropionate]
- effect on 3H-E2 binding to ER-α-36 (ER-α-36): biphasic effect
- expression level of integrin β1 [1]: did not affect
- integrin β1 distribution to the plasma membrane ([1]; 16 hours): down-regulated
- EGF-induced cell growth (T47D cells): blocked the increase in cell growth
- 2-NBDG uptake (MCF-7 cells): enhanced
- cellular ATP concentrations (MCF-7 cells): enhanced
